The text below walks through data of ChEMBL document CHEMBL1127571, “S-(N-aryl-N-hydroxycarbamoyl)glutathione derivatives are tight-binding inhibitors of glyoxalase I and slow substrates for glyoxalase II” (J Med Chem, 1994).

For orientation: Km means the concentration of substrate that gives half-maximal velocity.

Data set [1] can be described thus: Vm value of the compound. The data set is classed as ADME.
Data set [2] relates to NC(CCC(=O)NC(CSC(=O)N(O)c1ccccc1)C(=O)NCC(=O)O)C(=O)O. The note with it: Bos taurus.
Description: Michaelis-Menten constant was tested for inhibitory activity against bovine liver glyoxalase II

For `NC(CCC(=O)NC(CSC(=O)N(O)c1ccccc1)C(=O)NCC(=O)O)C(=O)O` (centres undefined), the Vm in data set [1] was determined as 4.6e-06.
Same read-out and setting: the result for `NC(CCC(=O)NC(CSC(=O)N(O)c1ccc(Br)cc1)C(=O)NCC(=O)O)C(=O)O` (centres undefined) reads 2.1e-05.
Regarding “Hydroxyacylglutathione hydrolase, mitochondrial (Homo sapiens) (from UniProt Q16775)”, the Km in data set [2] was determined as 13 µM.
Compound `NC(CCC(=O)NC(CSC(=O)N(O)c1ccc(Cl)cc1)C(=O)NCC(=O)O)C(=O)O` (centres undefined) gave a Vm in data set [1] of 1.5e-05.
